IC50 data for 21 compounds are collected here from US11976057B2, “MrgX2 antagonists” (GlaxoSmithKline Intellectual Property Development Limited, priority 2020, dated 2024).

The target in the test is T1, human MRGPRX2 (Homo sapiens, UniProt Q96LB1).
T1 sequence (Q96LB1 1-330): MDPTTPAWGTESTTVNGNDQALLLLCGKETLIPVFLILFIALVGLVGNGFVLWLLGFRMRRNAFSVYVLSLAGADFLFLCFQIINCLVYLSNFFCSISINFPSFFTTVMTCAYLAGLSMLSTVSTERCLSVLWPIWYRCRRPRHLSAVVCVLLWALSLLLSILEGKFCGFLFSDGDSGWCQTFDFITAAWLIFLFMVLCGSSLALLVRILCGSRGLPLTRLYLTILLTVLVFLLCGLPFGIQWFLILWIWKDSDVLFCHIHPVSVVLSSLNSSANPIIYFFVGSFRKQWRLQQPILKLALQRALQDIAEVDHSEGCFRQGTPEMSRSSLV
As to the kind of experiment: Ca2+ mobilization assay (FLIPR TETRA): inhibition of Cortistatin-14 mediated MRGPRX2 activation. (Calcium assays in cells follow changes in intracellular calcium, usually with a dye or a luminescent sensor.)

Consider `C[C@@H](C(=O)Nc1cnc(Oc2ccccc2)cn1)N1CCC(F)(F)[C@@H](c2c[nH]c(=O)c(CN)c2)C1` [Example 207, (S)-2-((S)-3-(5-(aminomethyl)-6-oxo-1,6-dihydropyridin-3-yl)-4,4-difluoropiperidin-1-yl)-N-(5-phenoxypyrazin-2-yl)propanamide], for which the half-inhibitory concentration (IC50) (in general, the concentration at which inhibition is half-maximal) was 10 to 100 nM.
`C[C@@H](C(=O)Nc1ccc(Oc2ccc(F)cn2)cn1)N1CCC(F)(F)[C@@H](c2c[nH]c(=O)c(CN)c2)C1` [Example 208, (S)-2-((S)-3-(5-(aminomethyl)-6-oxo-1,6-dihydropyridin-3-yl)-4,4-difluoropiperidin-1-yl)-N-(5-((5-fluoropyridin-2-yl)oxy)pyridin-2-yl)propanamide]: the IC50 was at most 10 nM.
As for `C[C@@H](C(=O)Nc1ccc(Oc2ccc(F)cc2)cn1)N1CCC(F)(F)C(c2c[nH]c(=O)c(C(O)C(F)(F)F)c2)C1` (stereo partly drawn) [Example 211, (2S)-2-(4,4-difluoro-3-(6-oxo-5-(2,2,2-trifluoro-1-hydroxyethyl)-1,6-dihydropyridin-3-yl)piperidin-10-yl)-N-(5-(4-fluorophenoxy)pyridin-2-yl)propanamide], the IC50 is at most 10 nM.
In the case of `C[C@@H](C(=O)Nc1ccc(Oc2ccc(F)cc2F)cn1)N1CCC(F)(F)C(c2c[nH]c(=O)c(C(O)C(F)(F)F)c2)C1` (stereo partly drawn) [Example 212, (2S)-2-(4,4-difluoro-3-(6-oxo-5-(2,2,2-trifluoro-1-hydroxyethyl)-1,6-dihydropyridin-3-yl)piperidin-1-yl)-N-(5-(2,4-difluorophenoxy)pyridin-2-yl)propanamide] it was at most 10 nM; in that of `CC(C(=O)Nc1ccc(F)cn1)N1CCC(F)(F)C(c2c[nH]c(=O)c(CS(C)(=O)=O)c2)C1` (stereo not drawn) [Example 213, 2-(4,4-difluoro-3-(5-((methylsulfonyl)methyl)-6-oxo-1,6-dihydropyridin-3-yl)piperidin-1-yl)-N-(5-fluoropyridin-2-yl)propanamide], 100 to 3160 nM.
For the compound `C[C@@H](C(=O)Nc1ccc(Oc2ccc(F)cc2)cn1)N1CCC(F)(F)[C@@H](c2c[nH]c(=O)c(CS(C)(=O)=O)c2)C1` [Example 214, (S)-2-((S)-4,4-difluoro-3-(5-((methylsulfonyl)methyl)-6-oxo-1,6-dihydropyridin-3-yl)piperidin-1-yl)-N-(5-(4-fluorophenoxy)pyridin-2-yl)propanamide], the IC50 is at most 10 nM.
Consider `C[C@@H](C(=O)Nc1cnc(Oc2ccc(F)cc2)cn1)N1CCC(F)(F)[C@@H](c2c[nH]c(=O)c(CS(C)(=O)=O)c2)C1` [Example 215, (S)-2-((S)-4,4-difluoro-3-(5-((methylsulfonyl)methyl)-6-oxo-1,6-dihydropyridin-3-yl)piperidin-1-yl)-N-(5-(4-fluorophenoxy)pyrazin-2-yl)propanamide], for which the IC50 lay in the range of 10 to 100 nM.
In the case of `C[C@@H](C(=O)Nc1ccc(Oc2ccc(F)cc2F)cn1)N1CCC(F)(F)[C@@H](c2c[nH]c(=O)c(CS(C)(=O)=O)c2)C1` [Example 216, (S)-2-((S)-4,4-difluoro-3-(5-((methylsulfonyl)methyl)-6-oxo-1,6-dihydropyridin-3-yl)piperidin-1-yl)-N-(5-(2,4-difluorophenoxy)pyridin-2-yl)propanamide], the half-inhibitory concentration (IC50) is at most 10 nM.
In the case of `Cc1cc(C2CN([C@@H](C)C(=O)Nc3ccc(F)cn3)CCC2(F)F)cc[n+]1[O-]` (stereo partly drawn) [Example 217, 4-(4,4-difluoro-1l-((S)-1-((5-fluoropyridin-2-yl)amino)-1-oxopropan-2-yl)piperidin-3-yl)-2-methylpyridine 1-oxide] it was 100 to 3160 nM; in that of `C[C@@H](C(=O)Nc1ccc(F)cn1)N1CCC(F)(F)[C@@H](c2cc[n+]([O-])c(CC(F)(F)F)c2)C1` [Example 219], 10 to 100 nM; in that of `C[C@@H](C(=O)Nc1ccc(OCC2CC2)nn1)N1CCC(F)(F)[C@@H](c2cc[n+]([O-])c(CC(F)(F)F)c2)C1` [Example 220], at most 10 nM.
In the case of `C[C@@H](C(=O)Nc1ccc(OCC2CC2)nn1)N1CCC(F)(F)C(c2c[nH]c(=O)c(Br)c2)C1` (stereo partly drawn) [Example 221, (2S)-2-(3-(5-bromo-6-oxo-1,6-dihydropyridin-3-yl)-4,4-difluoropiperidin-1-yl)-N-(6-(cyclopropylmethoxy)pyridazin-3-yl)propanamide] it was 10 to 100 nM; in that of `CC(N)c1cc(C2CN([C@@H](C)C(=O)Nc3ccc(OCC4CC4)nn3)CCC2(F)F)c[nH]c1=O` (stereo partly drawn) [Example 222, (2S)-2-(3-(5-(1-aminoethyl)-6-oxo-1,6-dihydropyridin-3-yl)-4,4-difluoropiperidin-1-yl)-N-(6-(cyclopropylmethoxy)pyridazin-3-yl)propanamide], 10 to 100 nM.
With `C[C@@H](C(=O)Nc1ccc(OCC2CC2)nn1)N1CCC(F)(F)C(c2c[nH]c(=O)c(C#N)c2)C1` (stereo partly drawn) [Example 223, (2S)-2-(3-(5-cyano-6-oxo-1,6-dihydropyridin-3-yl)-4,4-difluoropiperidin-1-yl)-N-(6-(cyclopropylmethoxy)pyridazin-3-yl)propanamide], the IC50 is 10 to 100 nM.
In the case of `C[C@@H](C(=O)Nc1ccc(OCC2CC2)nn1)N1CCC(F)(F)C(c2ccncc2)C1` (stereo partly drawn) [Example 224, (2S)—N-(6-(cyclopropylmethoxy)pyridazin-3-yl)-2-(4,4-difluoro-3-(pyridin-4-yl)piperidin-1-yl)propanamide] it was 100 to 3160 nM.
For `CC(C(=O)Nc1ccc(Oc2ccc(F)cc2)cn1)N1CCC(F)(F)C(c2c[nH]c(=O)c(CN3CCOCC3)c2)C1` (stereo not drawn) [Example 226, 2-(4,4-difluoro-3-(5-(morpholinomethyl)-6-oxo-1,6-dihydropyridin-3-yl)piperidin-1-yl)-N-(5-(4-fluorophenoxy)pyridin-2-yl)propanamide] the value was 10 to 100 nM.
Compound `C[C@@H](C(=O)Nc1ccc(Oc2ccc(F)cc2F)cn1)N1CCC(F)(F)[C@@H](c2c[nH]c(=O)c(CN3CCOCC3)c2)C1` [Example 227, (S)-2-((S)-4,4-difluoro-3-(5-(morpholinomethyl)-6-oxo-1,6-dihydropyridin-3-yl)piperidin-1-yl)-N-(5-(2,4-difluorophenoxy)pyridin-2-yl)propanamide] yielded a concentration for half-maximal inhibition (IC50) of at most 10 nM.
The compound `C[C@@H](C(=O)Nc1ccc(Oc2ncc(F)cc2F)cn1)N1CCC(F)(F)[C@@H](c2c[nH]c(=O)c(CN3CCOCC3)c2)C1` [Example 228, (S)-2-((S)-4,4-difluoro-3-(5-(morpholinomethyl)-6-oxo-1,6-dihydropyridin-3-yl)piperidin-1-yl)-N-(5-((3,5-difluoropyridin-2-yl)oxy)pyridin-2-yl)propanamide] registered a half-maximal inhibitory concentration (IC50) of 10 to 100 nM.
For `C[C@@H](C(=O)Nc1cnc(Oc2ccc(F)cc2F)cn1)N1CCC(F)(F)[C@@H](c2c[nH]c(=O)c(CN3CCOCC3)c2)C1` [Example 229, (S)-2-((S)-4,4-difluoro-3-(5-(morpholinomethyl)-6-oxo-1,6-dihydropyridin-3-yl)piperidin-1-yl)-N-(5-(2,4-difluorophenoxy)pyrazin-2-yl)propanamide] the value was at most 10 nM.
`CC(C(=O)Nc1ccc(Oc2ccc(F)cc2)cn1)N1CCC(F)(F)C(c2c[nH]c(=O)c(CN(C)C)c2)C1` (stereo not drawn) [Example 230, 2-(3-(5-((dimethylamino)methyl)-6-oxo-1,6-dihydropyridin-3-yl)-4,4-difluoropiperidin-1-yl)-N-(5-(4-fluorophenoxy)pyridin-2-yl)propanamide] registered an IC50 of 10 to 100 nM.
For `C[C@@H](C(=O)Nc1ccc(OCC2CC2)nn1)N1CCC(F)(F)[C@@H](c2c[nH]c(=O)c(CN(C)C)c2)C1` [Example 231], the IC50 was in the range of 100 to 3160 nM.
